Experimental findings from patent publication US7332328B2, “Microcolumn-platform based array for high-throughput analysis” (Corning Incorporated, priority 2001, dated 2008) are described below.

For the assay, the target named is adrenergic β1 receptor (Homo sapiens, UniProt P08588). Briefly: Ligand binding assay on adrenergic β1 receptor arrays printed on microcolumns. Particulars: 5 nM labeled ligand, microcolumn #1, about one hour incubation.
adrenergic β1 receptor, sequence (P08588 whole entry): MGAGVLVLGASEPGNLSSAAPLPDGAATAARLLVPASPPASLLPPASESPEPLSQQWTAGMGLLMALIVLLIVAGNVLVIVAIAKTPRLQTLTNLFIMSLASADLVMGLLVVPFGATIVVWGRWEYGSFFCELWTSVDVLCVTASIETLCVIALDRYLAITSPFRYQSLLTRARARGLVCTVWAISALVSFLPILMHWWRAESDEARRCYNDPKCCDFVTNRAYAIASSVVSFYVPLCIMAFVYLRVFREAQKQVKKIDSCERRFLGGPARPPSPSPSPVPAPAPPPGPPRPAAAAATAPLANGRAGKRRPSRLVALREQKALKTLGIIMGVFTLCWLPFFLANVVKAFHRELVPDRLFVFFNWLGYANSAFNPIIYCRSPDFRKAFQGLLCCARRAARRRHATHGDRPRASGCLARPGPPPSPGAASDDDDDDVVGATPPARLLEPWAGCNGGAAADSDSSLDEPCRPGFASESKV

Description: These glass microcolumns were coated with a thin gold layer and functionalized with GAPS. […] To assay ligand binding, the microcolumns were inserted into the wells of an 1×8-Stripwell plate (Corning®) containing a fluorescently-labeled β1 receptor ligand (bodipy-TMR CGP12177) (5 nM) in a ligand binding buffer (50 mM Tris-HCl, 2 mM EDTA, 1 mM MgCl2, pH 7.4, 0.1% BSA). […] Following incubation of about one hour, the microcolumns were removed, washed, and scanned to assess ligand binding on the array.

On to bodipy-TMR CGP12177, for which the “Binding of fluorescently-labeled ligand to the β1 receptor array (fluorescent signal)” value is recorded as “high fluorescent signal”.
